# Measurements as given in patent US20210338846A1, “COMPETITIVE PROSTATE-SPECIFIC MEMBRANE ANTIGEN (PSMA) BINDING AGENTS FOR REDUCTION OF NON-TARGET ORGAN UPTAKE OF RADIOLABELED PSMA INHIBITORS FOR PSMA POSITIVE TUMOR IMAGING AND RADIOPHARMACEUTICAL THERAPY” (The Johns Hopkins University, priority 2018, published 2021).
# Values joined by “and” are separate entries in the source; they are usually repeats but may differ in a detail not shown here. Equal values may be shown once. Read-outs that look alike come from different tables or passages of the source.
# What was measured:
# [1] = system: PSMA+ PC-3 PiP and PSMA− PC-3 flu tumors; format: in vivo
# [2] = system: PSMA+ PC-3 PiP and PSMA− PC-3 flu tumors
# [3] = 2 Hour (head; title: One-Hour), No CI
# [4] = 2 Hour (head; title: One-Hour), co-injection 0.5 nmole VK-02-90
# [5] = 2 Hour (head; title: One-Hour), co-injection 1.0 nmole VK-02-90
# [6] = 2 Hour (head; title: One-Hour), co-injection 5.0 nmole VK-02-90
# [7] = 4 Hour, co-injection 0.5 nmole VK-02-90
# [8] = 4 Hour, co-injection 1.0 nmole VK-02-90
# [9] = 4 Hour, co-injection 5.0 nmole VK-02-90
# [10] = 1 h, co-injection 0.5 nmole YC-I-27
# [11] = 1 h, co-injection 1.0 nmole YC-I-27
# [12] = 1 h, co-injection 5.0 nmole YC-I-27
# [13] = 4 h, co-injection 0.5 nmole YC-I-27
# [14] = 4 h, co-injection 1.0 nmole YC-I-27
# [15] = 4 h, co-injection 5.0 nmole YC-I-27
# [16] = 24 h, co-injection 0.5 nmole YC-I-27
structure (smiles),measurement,setting,value
O=C([O-])CN1CCN(CC(=O)[O-])CCN(CC(=O)NCCCCC(=O)N(CCCC[C@H](NC(=O)N[C@@H](CCC(=O)O)C(=O)O)C(=O)O)Cc2ccc([125I])cc2)CCN(CC(=O)[O-])CC1.[Lu+3] [[^125I]VK-02-90-Lu],Biodistribution: Blood,[1]; [3],1.1 ± 0.1 % injected dose/gram
same,Biodistribution: Flu tumor,[1]; [3],1.0 ± 0.2 % injected dose/gram
same,Biodistribution: Lacrimal gland,[1]; [3],2.1 ± 0.9 % injected dose/gram
same,Biodistribution: PiP tumor,[1]; [3],26 ± 3 % injected dose/gram
same,Biodistribution: Salivary gland,[1]; [3],2.3 ± 0.5 % injected dose/gram
same,Biodistribution: kidneys,[1]; [3],129 ± 15 % injected dose/gram
same,Biodistribution: spleen,[1]; [3],4.3 ± 0.9 % injected dose/gram
same,Biodistribution: stomach,[1]; [3],1.7 ± 0.3 % injected dose/gram
same,Biodistribution: Blood,[1]; [4],0.4 ± 0.1 % injected dose/gram
same,Biodistribution: Flu tumor,[1]; [4],0.6 ± 0.3 % injected dose/gram
same,Biodistribution: Lacrimal gland,[1]; [4],0.4 ± 0.1 % injected dose/gram
same,Biodistribution: PiP tumor,[1]; [4],37 ± 7 % injected dose/gram
same,Biodistribution: Salivary gland,[1]; [4],0.2 ± 0.03 % injected dose/gram
same,Biodistribution: kidneys,[1]; [4],10 ± 2.5 % injected dose/gram
same,Biodistribution: spleen,[1]; [4],1.1 ± 0.4 % injected dose/gram
same,Biodistribution: stomach,[1]; [4],0.2 ± 0.1 % injected dose/gram
same,Biodistribution: Blood,[1]; [5],0.4 ± 0.1 % injected dose/gram
same,Biodistribution: Flu tumor,[1]; [5],0.5 ± 0.1 % injected dose/gram
same,Biodistribution: Lacrimal gland,[1]; [5],0.4 ± 0.1 % injected dose/gram
same,Biodistribution: PiP tumor,[1]; [5],35 ± 9 % injected dose/gram
same,Biodistribution: Salivary gland,[1]; [5],0.2 ± 0.06 % injected dose/gram
same,Biodistribution: kidneys,[1]; [5],6.5 ± 0.9 % injected dose/gram
same,Biodistribution: spleen,[1]; [5],1.1 ± 0.4 % injected dose/gram
same,Biodistribution: stomach,[1]; [5],0.2 ± 0.04 % injected dose/gram
same,Biodistribution: Blood,[1]; [6],0.5 ± 0.1 % injected dose/gram
same,Biodistribution: Flu tumor,[1]; [6],0.9 ± 0.3 % injected dose/gram
same,Biodistribution: Lacrimal gland,[1]; [6],0.4 ± 0.03 % injected dose/gram
same,Biodistribution: PiP tumor,[1]; [6],24 ± 4 % injected dose/gram
same,Biodistribution: Salivary gland,[1]; [6],0.3 ± 0.1 % injected dose/gram
same,Biodistribution: kidneys,[1]; [6],4.2 ± 0.5 % injected dose/gram
same,Biodistribution: spleen,[1]; [6],0.7 ± 0.2 % injected dose/gram
same,Biodistribution: stomach,[1]; [6],0.2 ± 0.06 % injected dose/gram
same,Biodistribution: Blood,"[1]; 4 Hour, No CI",0.3 ± 0.2 % injected dose/gram
same,Biodistribution: Flu tumor,"[1]; 4 Hour, No CI",0.2 ± 0.1 % injected dose/gram
same,Biodistribution: Lacrimal gland,"[1]; 4 Hour, No CI",0.4 ± 0.2 % injected dose/gram
same,Biodistribution: PiP tumor,"[1]; 4 Hour, No CI",27 ± 8 % injected dose/gram
same,Biodistribution: Salivary gland,"[1]; 4 Hour, No CI",1.8 ± 0.2 % injected dose/gram
same,Biodistribution: kidneys,"[1]; 4 Hour, No CI",10 ± 2.5 % injected dose/gram
same,Biodistribution: spleen,"[1]; 4 Hour, No CI",0.6 ± 0.2 % injected dose/gram
same,Biodistribution: stomach,"[1]; 4 Hour, No CI",0.8 ± 0.5 % injected dose/gram
same,Biodistribution: Blood,[1]; [7],0.02 ± 0.01 % injected dose/gram
same,Biodistribution: Flu tumor,[1]; [7],0.1 ± 0.02 % injected dose/gram
same,Biodistribution: Lacrimal gland,[1]; [7],0.1 ± 0.03 % injected dose/gram
same,Biodistribution: PiP tumor,[1]; [7],25 ± 2 % injected dose/gram
same,Biodistribution: Salivary gland,[1]; [7],0.08 ± 0.04 % injected dose/gram
same,Biodistribution: kidneys,[1]; [7],2.1 ± 0.7 % injected dose/gram
same,Biodistribution: spleen,[1]; [7],0.2 ± 0.1 % injected dose/gram
same,Biodistribution: stomach,[1]; [7],0.06 ± 0.01 % injected dose/gram
same,Biodistribution: Blood,[1]; [8],0.2 ± 0.01 % injected dose/gram
same,Biodistribution: Flu tumor,[1]; [8],0.1 ± 0.03 % injected dose/gram
same,Biodistribution: Lacrimal gland,[1]; [8],0.1 ± 0.05 % injected dose/gram
same,Biodistribution: PiP tumor,[1]; [8],27 ± 4 % injected dose/gram
same,Biodistribution: Salivary gland,[1]; [8],0.1 ± 0.02 % injected dose/gram
same,Biodistribution: kidneys,[1]; [8],1.4 ± 0.4 % injected dose/gram
same,Biodistribution: spleen,[1]; [8],0.2 ± 0.1 % injected dose/gram
same,Biodistribution: stomach,[1]; [8],0.1 ± 0.03 % injected dose/gram
same,Biodistribution: Blood,[1]; [9],0 % injected dose/gram
same,Biodistribution: Flu tumor,[1]; [9],0.1 ± 0.01 % injected dose/gram
same,Biodistribution: Lacrimal gland,[1]; [9],0.1 ± 0.1 % injected dose/gram
same,Biodistribution: PiP tumor,[1]; [9],19 ± 2 % injected dose/gram
same,Biodistribution: Salivary gland,[1]; [9],0.05 ± 0.02 % injected dose/gram
same,Biodistribution: kidneys,[1]; [9],0.9 ± 0.3 % injected dose/gram
same,Biodistribution: spleen,[1]; [9],0.15 ± 0.08 % injected dose/gram
same,Biodistribution: stomach,[1]; [9],0.1 ± 0.04 % injected dose/gram
same,Biodistribution: Blood,"[2]; 1 h, No CI",1.1 ± 0.1 % injected dose/gram
same,Biodistribution: Flu tumor,"[2]; 1 h, No CI",1.0 ± 0.2 % injected dose/gram
same,Biodistribution: Lacrimal gland,"[2]; 1 h, No CI",2.1 ± 0.9 % injected dose/gram
same,Biodistribution: PiP tumor,"[2]; 1 h, No CI",26 ± 3 % injected dose/gram
same,Biodistribution: Salivary gland,"[2]; 1 h, No CI",2.3 ± 0.5 % injected dose/gram
same,Biodistribution: kidneys,"[2]; 1 h, No CI",129 ± 15 % injected dose/gram
same,Biodistribution: spleen,"[2]; 1 h, No CI",4.3 ± 0.9 % injected dose/gram
same,Biodistribution: stomach,"[2]; 1 h, No CI",1.7 ± 0.3 % injected dose/gram
same,Biodistribution: Blood,[2]; [10],1.1 ± 0.1 % injected dose/gram
same,Biodistribution: Flu tumor,[2]; [10],1.0 ± 0.3 % injected dose/gram
same,Biodistribution: Lacrimal gland,[2]; [10],0.5 ± 0.1 % injected dose/gram
same,Biodistribution: PiP tumor,[2]; [10],42 ± 4 % injected dose/gram and 42 ± 4.2 % injected dose/gram
same,Biodistribution: Salivary gland,[2]; [10],3.2 ± 0.7 % injected dose/gram
same,Biodistribution: kidneys,[2]; [10],4.2 ± 1.3 % injected dose/gram
same,Biodistribution: spleen,[2]; [10],0.8 ± 0.2 % injected dose/gram
same,Biodistribution: stomach,[2]; [10],1.8 ± 0.2 % injected dose/gram
same,Biodistribution: Blood,[2]; [11],1.0 ± 0.1 % injected dose/gram
same,Biodistribution: Flu tumor,[2]; [11],0.8 ± 0.2 % injected dose/gram
same,Biodistribution: Lacrimal gland,[2]; [11],0.6 ± 0.05 % injected dose/gram
same,Biodistribution: PiP tumor,[2]; [11],29 ± 2 % injected dose/gram
same,Biodistribution: Salivary gland,[2]; [11],2.9 ± 0.4 % injected dose/gram
same,Biodistribution: kidneys,[2]; [11],2.4 ± 0.8 % injected dose/gram
same,Biodistribution: spleen,[2]; [11],0.6 ± 0.1 % injected dose/gram
same,Biodistribution: stomach,[2]; [11],1.8 ± 0.3 % injected dose/gram
same,Biodistribution: Blood,[2]; [12],1.1 ± 0.2 % injected dose/gram
same,Biodistribution: Flu tumor,[2]; [12],0.8 ± 0.2 % injected dose/gram
same,Biodistribution: Lacrimal gland,[2]; [12],1.1 ± 0.6 % injected dose/gram
same,Biodistribution: PiP tumor,[2]; [12],20 ± 3 % injected dose/gram
same,Biodistribution: Salivary gland,[2]; [12],5.1 ± 1.7 % injected dose/gram
same,Biodistribution: kidneys,[2]; [12],2.3 ± 0.7 % injected dose/gram
same,Biodistribution: spleen,[2]; [12],0.7 ± 0.1 % injected dose/gram
same,Biodistribution: stomach,[2]; [12],2.2 ± 0.7 % injected dose/gram
same,Biodistribution: Blood,"[2]; 4 h, No CI",0.3 ± 0.2 % injected dose/gram
same,Biodistribution: Flu tumor,"[2]; 4 h, No CI",0.2 ± 0.1 % injected dose/gram and 0.25 ± 0.1 % injected dose/gram
same,Biodistribution: Lacrimal gland,"[2]; 4 h, No CI",0.4 ± 0.2 % injected dose/gram
same,Biodistribution: PiP tumor,"[2]; 4 h, No CI",27 ± 7 % injected dose/gram and 27 ± 8 % injected dose/gram
same,Biodistribution: Salivary gland,"[2]; 4 h, No CI",1.8 ± 0.2 % injected dose/gram
same,Biodistribution: kidneys,"[2]; 4 h, No CI",9.5 ± 2.5 % injected dose/gram and 10 ± 2.5 % injected dose/gram
same,Biodistribution: spleen,"[2]; 4 h, No CI",0.6 ± 0.2 % injected dose/gram
same,Biodistribution: stomach,"[2]; 4 h, No CI",0.8 ± 0.5 % injected dose/gram
same,Biodistribution: Blood,[2]; [13],0.4 ± 0.06 % injected dose/gram
same,Biodistribution: Flu tumor,[2]; [13],0.3 ± 0.1 % injected dose/gram
same,Biodistribution: Lacrimal gland,[2]; [13],0.2 ± 0.02 % injected dose/gram and 0.4 ± 0.02 % injected dose/gram
same,Biodistribution: PiP tumor,[2]; [13],24 ± 3 % injected dose/gram
same,Biodistribution: Salivary gland,[2]; [13],3.3 ± 0.8 % injected dose/gram
same,Biodistribution: kidneys,[2]; [13],0.9 ± 0.1 % injected dose/gram
same,Biodistribution: spleen,[2]; [13],0.25 ± 0.07 % injected dose/gram
same,Biodistribution: stomach,[2]; [13],1.3 ± 0.2 % injected dose/gram
same,Biodistribution: Blood,[2]; [14],0.4 ± 0.05 % injected dose/gram
same,Biodistribution: Flu tumor,[2]; [14],0.3 ± 0.1 % injected dose/gram
same,Biodistribution: Lacrimal gland,[2]; [14],0.2 ± 0.03 % injected dose/gram
same,Biodistribution: PiP tumor,[2]; [14],24 ± 1 % injected dose/gram
same,Biodistribution: Salivary gland,[2]; [14],3.2 ± 0.7 % injected dose/gram
same,Biodistribution: kidneys,[2]; [14],0.6 ± 0.03 % injected dose/gram
same,Biodistribution: spleen,[2]; [14],0.2 ± 0.04 % injected dose/gram
same,Biodistribution: stomach,[2]; [14],1.2 ± 0.2 % injected dose/gram
same,Biodistribution: Blood,[2]; [15],0.4 ± 0.1 % injected dose/gram
same,Biodistribution: Flu tumor,[2]; [15],0.3 ± 0.1 % injected dose/gram
same,Biodistribution: Lacrimal gland,[2]; [15],0.5 ± 0.5 % injected dose/gram
same,Biodistribution: PiP tumor,[2]; [15],14 ± 5 % injected dose/gram
same,Biodistribution: Salivary gland,[2]; [15],5.0 ± 1.4 % injected dose/gram
same,Biodistribution: kidneys,[2]; [15],0.7 ± 0.1 % injected dose/gram
same,Biodistribution: spleen,[2]; [15],0.3 ± 0.06 % injected dose/gram
same,Biodistribution: stomach,[2]; [15],1.6 ± 0.4 % injected dose/gram
same,Biodistribution: Blood,"[2]; 24 h, No CI",0.01 ± 0.01 % injected dose/gram
same,Biodistribution: Flu tumor,"[2]; 24 h, No CI",0.05 ± 0.01 % injected dose/gram
same,Biodistribution: Lacrimal gland,"[2]; 24 h, No CI",0.05 ± 0.04 % injected dose/gram
same,Biodistribution: PiP tumor,"[2]; 24 h, No CI",18 ± 6 % injected dose/gram
same,Biodistribution: Salivary gland,"[2]; 24 h, No CI",0.02 ± 0.08 % injected dose/gram
same,Biodistribution: kidneys,"[2]; 24 h, No CI",1.3 ± 0.7 % injected dose/gram
same,Biodistribution: spleen,"[2]; 24 h, No CI",0.1 ± 0.05 % injected dose/gram
same,Biodistribution: stomach,"[2]; 24 h, No CI",0.01 ± 0.04 % injected dose/gram
same,Biodistribution: Blood,[2]; [16],0.1 ± 0.01 % injected dose/gram
same,Biodistribution: Flu tumor,[2]; [16],0.04 ± 0.01 % injected dose/gram
same,Biodistribution: Lacrimal gland,[2]; [16],0.03 ± 0.02 % injected dose/gram
same,Biodistribution: PiP tumor,[2]; [16],16 ± 4 % injected dose/gram
same,Biodistribution: Salivary gland,[2]; [16],0.02 ± 0.01 % injected dose/gram
same,Biodistribution: kidneys,[2]; [16],0.5 ± 0.2 % injected dose/gram
same,Biodistribution: spleen,[2]; [16],0.04 ± 0.01 % injected dose/gram
same,Biodistribution: stomach,[2]; [16],0.04 ± 0.04 % injected dose/gram
